Molecules are shown by their SMILES. Read-outs that look alike come from different tables or passages of the source.

One test has as its target T1, DRB1*0101 (DR1) (Homo sapiens, UniProt P01903+P01911, A100R/D57E/F55L/F60I/F76Y/I96L/L162R/M171V/P40L/Q125E/R42F/V115G/Y59C).
T1 construct: Epstein-Barr virus (EBV) transformed homozygous cell lines were used as sources; endogenous in cells; host or cells: LG2 (EBV-transformed homozygous B cell line)
The experiment in a line: biochemical. The test is classed as binding. Conditions: Binding Capacity (IC 50% nM) DR1,4,7 DRB1.

For test [1], the target named is T2, DRB1*0301 (DR3w17) (Homo sapiens, UniProt P01903+P01911, A100K/A102G/A103R/A169T/F55Y/I96L/K41T/L162R/M171V/P40S/Q125H/Q178H/Q39Y/R42S/S66N/T106N/T262R/W38E/Y61H). The experiment in a line: biochemical.
The target of the next test is T3, DRB1*0701 (DR7) (Homo sapiens, UniProt P01903+P01911, A100R/A102G/A103Q/D57E/D86V/E43K/F76Y/K127E/L162R/M171V/P40G/Q125H/Q99D/R33Q/R42Y/R54Q/S133A/S66F/T210M/V115G/Y107V/Y59L/Y89S).
T3 construct: Epstein-Barr virus (EBV) transformed homozygous cell lines were used as sources; endogenous in cells; host or cells: PITOUT (EBV-transformed homozygous B cell line)
The test is described as follows: biochemical. The test is classed as binding.

For the next test, the target named is T4, DRB1*0901 (DR9) (Homo sapiens, UniProt P01903+P01911, A100R/A103E/D57H/D86V/F55Y/F60I/F76Y/I96F/K127E/L162R/M171V/P40D/Q125H/Q99R/R33Q/R42F/S133A/S66N/T210M/V115G/W38K/Y107V/Y59G/Y89S).
T4 construct: Epstein-Barr virus (EBV) transformed homozygous cell lines were used as sources; endogenous in cells
The experiment in a line: biochemical. Conditions: Binding Capacity (IC 50% nM) Other Alleles DR9. The format is binding.

For another test, the target named is T5, DRB1*0802 (DR8w2) (Homo sapiens, UniProt P01903+P01911, A100R/A103L/A169T/F76Y/H45Y/I96F/K41T/L162R/M171V/P40S/Q125H/Q178H/Q39Y/Q99D/R218S/R42G/S66Y/V115G/W38E).
T5 construct: Epstein-Barr virus (EBV) transformed homozygous cell lines were used as sources; endogenous in cells; host or cells: OLL (EBV-transformed homozygous B cell line)
The experiment in a line: biochemical. The test is classed as binding.

Another test deals with T6, DRB1*1201 (DR5w12) (Homo sapiens, UniProt P01903+P01911, A100R/A169T/D57E/D86V/F55L/H45Y/K41T/L162R/M171V/P40S/Q125H/Q178H/Q39Y/Q99D/R42G/S66L/T262R/V114A/V67L/W38E/Y59H/Y61H/Y89S).
T6 construct: Epstein-Barr virus (EBV) transformed homozygous cell lines were used as sources; endogenous in cells; host or cells: Herluf (EBV-transformed homozygous B cell line)
The test is described as follows: biochemical. The format is binding.

The target in a further test is T7, DRB1*0405 (DR4w15) (Homo sapiens, UniProt P01903+P01911, A100R/A169T/D86S/F76Y/I96L/K127E/L162R/M171V/N62H/P40V/Q125Y/R42H/S133A/S149N/S66Y/V115G/V209L/W38E).
T7 construct: Epstein-Barr virus (EBV) transformed homozygous cell lines were used as sources; endogenous in cells; host or cells: KT3 (EBV-transformed homozygous B cell line)
The test is described as follows: biochemical. The format is binding.

A further test has as its target T8, DRB1*0401 (DR4w4) (Homo sapiens, UniProt P01903+P01911, A100K/A169T/F76Y/I96L/K127E/L162R/M171V/N62H/P40V/Q125Y/R42H/S133A/S149N/S66Y/V115G/V209L/W38E).
T8 construct: Epstein-Barr virus (EBV) transformed homozygous cell lines were used as sources; endogenous in cells; host or cells: PREISS (EBV-transformed homozygous B cell line)
The experiment in a line: biochemical. The test is classed as binding.

For the next test, the target named is T9, DRB1*1501 (DR2w2b) (Homo sapiens, UniProt P01903+P01911).
T9 construct: expressed in transfected cells; host or cells: transfected fibroblasts L466.1
The experiment in a line: biochemical. The format is binding.

The target in a further test is T10, DRB1*1302 (DR6w19) (Homo sapiens, UniProt P01903+P01911, A100E/A169T/K41T/L162R/M171V/P40S/Q125H/Q178H/Q39Y/Q99D/R42S/S66N/T262R/V115G/W38E/Y61H).
T10 construct: Epstein-Barr virus (EBV) transformed homozygous cell lines were used as sources; the source of Class II molecules the EBV transformed homozygous cell line H0301; endogenous in cells; host or cells: H0301 (EBV-transformed homozygous B cell line)
The experiment in a line: biochemical. The test is classed as binding. Conditions: Binding Capacity (IC 50% nM) Other Alleles DR6w19.

A further test addresses T11, DRB5*0101 (DR2w2a) (Homo sapiens, UniProt P01903+Q30154).
T11 construct: Epstein-Barr virus (EBV) transformed homozygous cell lines were used as sources; endogenous in cells; host or cells: GM3107 (EBV-transformed homozygous B cell line)
The test is described as follows: biochemical. The format is binding.

For a further test, the target named is T12, DRB1*1101 (DR5w11) (Homo sapiens, UniProt P01903+P01911, A100R/A169T/A87E/I96F/K41T/L162R/M171V/P40S/Q125H/Q178H/Q39Y/Q99D/R42S/S66Y/T262R/V115G/W38E).
T12 construct: Epstein-Barr virus (EBV) transformed homozygous cell lines were used as sources; endogenous in cells; host or cells: SWEIG (EBV-transformed homozygous B cell line)
T12 sequence (P01903 26-254, other chains not shown): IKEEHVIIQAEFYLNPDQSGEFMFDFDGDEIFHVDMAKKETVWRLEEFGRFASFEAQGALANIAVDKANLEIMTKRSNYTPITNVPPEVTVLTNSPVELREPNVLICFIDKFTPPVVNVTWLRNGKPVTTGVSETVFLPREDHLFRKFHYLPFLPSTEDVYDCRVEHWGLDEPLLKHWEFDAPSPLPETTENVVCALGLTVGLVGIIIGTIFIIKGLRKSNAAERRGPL
The test is described as follows: biochemical. The format is binding.

Test [2] concerns the target T2, DRB1*0301 (DR3w17). As to conditions: read-out: Binding Capacity (IC 50% nM) Other Alleles DR3.
Setting [3] is: Binding Capacity (IC50% nM) DR3.
Setting [4] is: Binding Capacity (IC 50% nM) DR1,4,7 DR7.
The mark [5] stands for this setting: Binding Capacity (IC 50% nM) Other Alleles DR8w2.
The mark [6] stands for this setting: read-out: Binding Capacity (IC 50% nM) Other Alleles DR5w12.
The mark [7] stands for this setting: read-out: Binding Capacity (IC 50% nM) Other Alleles DR4w15.
[8] abbreviates: Binding Capacity (IC 50% nM) DR1,4,7 DR4w4.
Where [9] appears, read: Binding Capacity (IC 50% nM) Other Alleles DR2w2b.
[10] abbreviates: Binding Capacity (IC 50% nM) Other Alleles DR2w2a.
Setting [11] is: read-out: Binding Capacity (IC 50% nM) Other Alleles DR5w11.
Setting [12] is: Binding Capacity (IC50% nM) DR2w2b.
Setting [13] is: read-out: Binding Capacity (IC 50% nM) Other Alleles DR2w2b.

As to `CC[C@H](C)[C@H](NC(=O)[C@H](C)NC(=O)[C@H](CC(C)C)NC(=O)[C@H](CCCCN)NC(=O)[C@H](CCCNC(=N)N)NC(=O)[C@@H](N)CCSC)C(=O)N[C@@H](CC(C)C)C(=O)N[C@@H](CO)C(=O)N[C@H](C(=O)N[C@@H](CO)C(=O)N[C@@H](CO)C(=O)N[C@@H](Cc1ccccc1)C(=O)N[C@@H](CC(C)C)C(=O)N[C@@H](Cc1ccccc1)C(=O)N[C@H](C(=O)O)C(C)C)C(C)C` [Peptide 27.388], the IC50 on DRB1*0101 (DR1) is < 1000 nM; on DRB1*0301 (DR3w17) [1] (setting [3]), > 10000 nM.
Regarding `CSCC[C@H](NC(=O)[C@H](C)NC(=O)[C@H](CC(C)C)NC(=O)[C@@H]1CCCN1C(=O)[C@@H](NC(=O)[C@H](C)NC(=O)[C@H](Cc1c[nH]cn1)NC(=O)[C@H](CC(N)=O)NC(=O)[C@@H](NC(=O)[C@H](Cc1c[nH]c2ccccc12)NC(=O)[C@H](CC(N)=O)NC(=O)[C@H](Cc1c[nH]cn1)NC(=O)[C@@H](N)CCCNC(=N)N)C(C)C)C(C)C)C(=O)N[C@@H](CCCCN)C(=O)N[C@@H](CC(C)C)C(=O)O` [Peptide 1188.45], the IC50 at DRB1*0701 (DR7) (setting [4]) was < 1000 nM; at DRB1*0901 (DR9), < 1000 nM; on DRB1*0802 (DR8w2) (setting [5]) it was < 1000 nM; at DRB1*1201 (DR5w12) (Binding Capacity (IC50% nM) DR5w12), > 10000 nM; at DRB1*1201 (DR5w12) (setting [6]), > 1000 nM; on DRB1*0405 (DR4w15) (setting [7]) it was > 1000 nM. The IC50 at DRB1*0101 (DR1) is < 1000 nM; at DRB1*0401 (DR4w4) (setting [8]) it was < 1000 nM; on DRB1*0401 (DR4w4) (Binding Capacity (IC50% nM) DR4w4), 9 nM; at DRB1*0301 (DR3w17) [1] (Binding Capacity (IC 50% nM) Other Alleles DR3), < 1000 nM; on DRB1*1501 (DR2w2b) (setting [9]), < 1000 nM; on DRB1*1302 (DR6w19), < 1000 nM. For the same compound, the IC50 on DRB5*0101 (DR2w2a) (setting [10]) is < 1000 nM; on DRB1*1101 (DR5w11) (setting [11]), > 1000 nM.
With `CC(C)[C@H](NC(=O)[C@H](Cc1ccccc1)NC(=O)[C@@H](N)CCCCN)C(=O)N[C@H](C(=O)N1CCC[C@H]1C(=O)NCC(=O)N[C@@H](C)C(=O)N[C@@H](C)C(=O)N[C@H](C(=O)N1CCC[C@H]1C(=O)N[C@@H](Cc1ccc(O)cc1)C(=O)N[C@@H](C)C(=O)NCC(=O)N[C@@H](CCC(=O)O)C(=O)N1CCC[C@H]1C(=O)O)[C@@H](C)O)C(C)C` [Peptide F107.17], the IC50 is > 10000 nM on DRB1*0701 (DR7) (Binding Capacity (IC50% nM) DR7); > 1000 nM on DRB1*0701 (DR7) (read-out: Binding Capacity (IC 50% nM) DR1,4,7 DR7); < 1000 nM on DRB1*0901 (DR9); > 1000 nM at DRB1*0802 (DR8w2) (read-out: Binding Capacity (IC 50% nM) Other Alleles DR8w2); > 1000 nM at DRB1*1201 (DR5w12) (setting [6]); > 1000 nM at DRB1*0301 (DR3w17) [2]. Further, the IC50 on DRB1*0405 (DR4w15) (setting [7]) was > 1000 nM; on DRB1*0101 (DR1), < 1000 nM; on DRB1*0401 (DR4w4) (setting [8]) it was < 1000 nM; on DRB1*1501 (DR2w2b) (setting [12]) it was > 10000 nM; at DRB1*1501 (DR2w2b) (setting [13]), > 1000 nM; on DRB1*1302 (DR6w19), < 1000 nM. The IC50 at DRB5*0101 (DR2w2a) (Binding Capacity (IC50% nM) DR2w2a) is > 10000 nM; at DRB5*0101 (DR2w2a) (read-out: Binding Capacity (IC 50% nM) Other Alleles DR2w2a) it was > 1000 nM; at DRB1*1101 (DR5w11) (Binding Capacity (IC50% nM) DR5w11), > 10000 nM; at DRB1*1101 (DR5w11) (setting [11]), > 1000 nM.
For `CC[C@H](C)[C@H](NC(=O)[C@H](CC(C)C)NC(=O)[C@H](CCCCN)NC(=O)[C@H](CCSC)NC(=O)[C@H](C)NC(=O)[C@H](CC(C)C)NC(=O)[C@@H]1CCCN1C(=O)[C@@H](NC(=O)[C@H](C)NC(=O)[C@H](Cc1c[nH]cn1)NC(=O)[C@H](CC(N)=O)NC(=O)[C@@H](NC(=O)[C@H](Cc1c[nH]c2ccccc12)NC(=O)[C@H](CC(N)=O)NC(=O)[C@@H](N)Cc1c[nH]cn1)C(C)C)C(C)C)C(=O)O` [Peptide 1188.34], the IC50 on DRB1*0701 (DR7) (setting [4]) was < 1000 nM; on DRB1*0901 (DR9), < 1000 nM; on DRB1*0802 (DR8w2) (setting [5]), < 1000 nM; on DRB1*1201 (DR5w12) (Binding Capacity (IC 50% nM) Other Alleles DR5w12), < 1000 nM; at DRB1*0301 (DR3w17) [2] it was > 1000 nM; at DRB1*0405 (DR4w15) (Binding Capacity (IC 50% nM) Other Alleles DR4w15) it was < 1000 nM. Further, the IC50 is < 1000 nM at DRB1*0101 (DR1); < 1000 nM at DRB1*0401 (DR4w4) (setting [8]); < 1000 nM on DRB1*1501 (DR2w2b) (setting [9]); < 1000 nM at DRB1*1302 (DR6w19); < 1000 nM at DRB5*0101 (DR2w2a) (setting [10]); > 1000 nM on DRB1*1101 (DR5w11) (setting [11]).
Consider `CC(C)C[C@H](NC(=O)CN)C(=O)N[C@@H](C)C(=O)N[C@@H](Cc1ccc(O)cc1)C(=O)N[C@@H](CCCCN)C(=O)N[C@@H](Cc1ccccc1)C(=O)N[C@H](C(=O)N[C@H](C(=O)N1CCC[C@H]1C(=O)NCC(=O)N[C@@H](C)C(=O)N[C@@H](C)C(=O)N[C@H](C(=O)N1CCC[C@H]1C(=O)N[C@@H](Cc1ccc(O)cc1)C(=O)O)[C@@H](C)O)C(C)C)C(C)C` [Peptide 1188.32], for which the IC50 is > 1000 nM at DRB1*0301 (DR3w17) [2], > 10000 nM at DRB1*0301 (DR3w17) [1] (setting [3]), > 10000 nM on DRB1*1501 (DR2w2b) (setting [12]) and > 1000 nM on DRB1*1501 (DR2w2b) (setting [13]).

The values are drawn from US6413517B1, “Identification of broadly reactive DR restricted epitopes” (Epimmune, Inc., priority 1997, dated 2002).
